Measured values from patent publication US7501425B1, “Bicyclic pyrimidines and bicyclic 3,4-dihydropyprimidines as inhibitors of cellular proliferation” (Warner Lambert Company, priority 1999, dated 2009).

Key:
[1] = target: T1, c-Src (Homo sapiens, UniProt P12931); assay: c-Src kinase assay; type: biochemical; settings: 5 μM ATP, poly GluTyr substrate
T1 construct: made in house; host or cells: baculovirus infected insect cells
Protocol: Several of the invention compounds have been evaluated in a standard assay to measure their ability to inhibit cellular Src protein kinase (c-Src). […] The assay was carried out as follows:
c-Src kinase was purified from baculovirus infected insect cell lysates using an antipeptide monoclonal antibody directed against the N-terminal amino acids (amino acids 2-17) of c-Src. The antibody, covalently linked to 0.65 μm latex beads, was added to a suspension of insect cell lysis buffer comprised of 150 mM NaCl, 50 mM Tris pH 7.5, 1 mM DTT, 1% NP-40, 2 mM EGTA, 1 mM sodium vanadate, 1 mM PMSF, 1 μg/mL each of leupeptin, pepstatin, and aprotinin. Insect cell lysate containing c-Src protein was incubated with these beads for 3 to 4 hours at 4° C. with rotation. At the end of the lysate incubation, the beads were rinsed three times in lysis buffer, resuspended in lysis buffer containing 10% glycerol, and frozen. These latex beads were thawed, rinsed three times in assay buffer (40 mM Tris, pH 7.5, 5 mM […]) and suspended in the same buffer. In a Millipore 96-well plate with a 0.65 μm polyvinylidine membrane bottom were added the reaction components: 10 μL c-Src beads, 10 μL of 2.5 mg/mL poly GluTyr substrate, 5 μM ATP containing 0.2 μCi labeled ^32P-ATP, 5 μL DMSO containing inhibitors or as a solvent control, and buffer to make the final volume 125 μL. The reaction was started at room temperature by addition of the ATP and quenched 10 minutes later by the addition of 125 μL of 30% TCA, 0.1 M sodium pyrophosphate for 5 minutes on ice. The plate was then filtered and the wells washed with two […] aliquots of 15% TCA, 0.1 M pyrophosphate. The filters were then punched, counted in a liquid scintillation counter, and the data examined for inhibitory activity in comparison to a known inhibitor such as erbstatin. The method is also described in J. Med. Chem., 1994; 37:598-609. Tables 5 and 6 list c-Src inhibitory concentrations (IC50) for representative invention compounds.

[2] = target: cdk2/cyclinE (Homo sapiens, UniProt P24941); assay: Cyclin-dependent kinase assay cdk2/cyclinE; type: biochemical; settings: read-out: cdk2/E IC50
Protocol: (§1) Cyclin-Dependent Kinase Assays (cdk2/cyclinE, cdk2/cyclinA, cdc2/cyclinB)
(§2) All components except the ATP were added to the wells, and the plate was placed on a plate mixer for 2 minutes. The reaction was begun by addition of [^32P]ATP, and the plate was incubated at 25° C. for 15 minutes. The reaction was terminated by addition of 0.1 mL of 20% TCA. The plate was kept at 4° C. for at least 1 hour to allow the substrate to precipitate. The wells were then washed five times with 0.2 mL of 10% TCA and ^32P incorporation determined with a beta plate counter (Wallac Inc., Gaithersburg, Md.).

[3] = target: cdk2/cyclinA (Homo sapiens, UniProt P24941); assay: Cyclin-dependent kinase assay cdk2/cyclinA; type: biochemical
Protocol: as §1, §2

[4] = target: T2, PDGF-β receptor tyrosine kinase (Mus musculus, UniProt P05622); assay: PDGF receptor tyrosine kinase assay; type: biochemical; settings: intracellular tyrosine kinase domain, SF9 lysate
T2 construct: amplify a fragment of DNA that codes for the intracellular tyrosine kinase domain; made in house; host or cells: SF9 insect cells (baculovirus)
Protocol: (§3) The assays used to determine these activities were carried out as follows:
(§4) PDGF and FGF Receptor Tyrosine Kinase Assays
(§5) PCR primers were designed to amplify a fragment of DNA that codes for the intracellular tyrosine kinase domain. The fragment was inserted into a baculovirus vector, cotransfected with AcMNPV DNA, and the recombinant virus isolated. SF9 insect cells were infected with the virus to overexpress the protein, and the cell lysate was used for the assay. Assays were performed in 96-well plates (100 μL/incubation/well), and conditions were optimized to measure the incorporation of ^32P from γ^32P-ATP into a glutamate-tyrosine co-polymer substrate. Briefly, to each well was added 82.5 μL of incubation buffer containing 25 mM Hepes (pH 7.0), 150 mM NaCl, 0.1% Triton X-100, 0.2 mM PMSF, 0.2 mM Na3VO4, 10 mM MnCl2, and 750 μg/mL of Poly (4:1) glutamate-tyrosine followed by 2.5 μL of inhibitor and 5 μL of enzyme lysate (7.5 μg/μL FGF-TK or 6.0 μg/μL PDGF-TK) to initiate the reaction. Following a 10 minute incubation at 25° C., […] of γ^32P-ATP (0.4 μCi plus 50 μM ATP) was added to each well, and samples were incubated for an additional 10 minutes at 25° C. […] Nonspecific activity was defined as radioactivity retained on the filters following incubation of samples with buffer alone (no enzyme). […]

[5] = target: cdk4/D (Homo sapiens, UniProt P11802); assay: Cyclin-Dependent Kinase 4 (cdk4) enzyme assay, 32P incorporation; type: biochemical; settings: 25 μM ATP, retinoblastoma substrate
Protocol: A typical assay, for instance, measures inhibitory activity against the cyclin D dependent kinase 4 enzyme (cdk4/D). […] The cdk4 assay was carried out as follows.
Cyclin-Dependent Kinase 4 (cdk4) Assay
Enzyme assays for IC50 determinations (Tables 1 and 2) and kinetic evaluation were performed in 96 well filter plates (Millipore MADVN6550). The total volume was 0.1 mL containing a final concentration of 20 mM TRIS (tris[hydroxymethyl]aminomethane), at pH 7.4, 50 mM NaCl, 1 mM dithiothreitol, 10 mM MgCl2, 25 μM ATP containing 0.25 μCi of [^32P]ATP, 20 ng of cdk4, 1 μg of retinoblastoma, and appropriate dilutions of a compound of the present invention. All components except the ATP were added to the wells, and the plate was placed on a plate mixer for 2 minutes. The reaction was started by adding [^32P]ATP and the plate was incubated at 25° C. for 15 minutes. The reaction was terminated by addition of 0.1 mL of 20% trichloroacetic acid (TCA). The plate was kept at 4° C. for at least 1 hour to allow the substrate to precipitate. The wells were then washed five times with 0.2 mL of 10% TCA and ^32p incorporation was determined with a beta plate counter (Wallac Inc., Gaithersburg. MD).

[6] = target: cdc2/cyclinB (Homo sapiens, UniProt P06493); assay: Cyclin-dependent kinase assay cdc2/cyclinB (cdk1/B); type: biochemical
Protocol: as §1, §2

[7] = target: T3, FGF-1 (flg) receptor tyrosine kinase (Homo sapiens, UniProt P11362); assay: FGF receptor tyrosine kinase assay; type: biochemical; settings: intracellular tyrosine kinase domain, SF9 lysate
T3 construct: amplify a fragment of DNA that codes for the intracellular tyrosine kinase domain; made in house; host or cells: SF9 insect cells (baculovirus)
Protocol: as §3, §4, §5

Chain of cdc2/cyclinB (P06493 whole entry, species assumed): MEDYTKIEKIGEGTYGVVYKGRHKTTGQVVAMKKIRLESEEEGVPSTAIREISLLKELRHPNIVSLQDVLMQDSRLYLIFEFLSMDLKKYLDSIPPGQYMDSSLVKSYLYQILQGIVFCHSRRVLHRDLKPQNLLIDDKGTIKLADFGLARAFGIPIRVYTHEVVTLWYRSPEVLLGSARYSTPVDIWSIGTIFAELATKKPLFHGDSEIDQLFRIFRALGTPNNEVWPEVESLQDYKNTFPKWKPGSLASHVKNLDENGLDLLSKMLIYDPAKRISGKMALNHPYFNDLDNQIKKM
Chain of cdc2/cyclinB (P14635 whole entry partner, species assumed): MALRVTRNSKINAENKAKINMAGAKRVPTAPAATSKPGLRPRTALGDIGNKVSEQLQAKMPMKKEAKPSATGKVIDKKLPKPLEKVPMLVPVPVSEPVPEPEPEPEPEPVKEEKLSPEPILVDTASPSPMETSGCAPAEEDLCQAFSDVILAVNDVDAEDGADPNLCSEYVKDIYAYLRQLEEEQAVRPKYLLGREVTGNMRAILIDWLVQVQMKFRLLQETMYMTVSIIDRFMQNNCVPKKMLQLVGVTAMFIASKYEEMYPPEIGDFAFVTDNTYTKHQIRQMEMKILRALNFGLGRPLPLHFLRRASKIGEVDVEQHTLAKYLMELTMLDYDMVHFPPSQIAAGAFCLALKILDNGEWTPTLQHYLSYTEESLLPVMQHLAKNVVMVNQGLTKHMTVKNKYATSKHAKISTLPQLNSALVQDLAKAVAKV
T1 sequence (P12931 whole entry, species assumed): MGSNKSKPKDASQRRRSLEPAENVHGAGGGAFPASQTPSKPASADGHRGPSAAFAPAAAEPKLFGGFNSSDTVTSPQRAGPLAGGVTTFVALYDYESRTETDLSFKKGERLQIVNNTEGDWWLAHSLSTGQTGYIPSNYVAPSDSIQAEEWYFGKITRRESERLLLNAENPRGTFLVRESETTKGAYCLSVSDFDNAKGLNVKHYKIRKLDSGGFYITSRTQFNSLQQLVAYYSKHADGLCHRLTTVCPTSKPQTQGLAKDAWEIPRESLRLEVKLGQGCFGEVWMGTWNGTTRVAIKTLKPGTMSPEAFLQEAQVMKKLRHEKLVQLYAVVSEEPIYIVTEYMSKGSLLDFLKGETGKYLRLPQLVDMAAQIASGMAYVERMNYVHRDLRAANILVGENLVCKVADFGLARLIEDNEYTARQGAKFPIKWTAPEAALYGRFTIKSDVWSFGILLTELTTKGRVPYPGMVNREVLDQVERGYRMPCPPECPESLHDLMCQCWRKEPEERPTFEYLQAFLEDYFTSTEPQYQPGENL
Chain of cdk4/D (P11802 whole entry, species assumed): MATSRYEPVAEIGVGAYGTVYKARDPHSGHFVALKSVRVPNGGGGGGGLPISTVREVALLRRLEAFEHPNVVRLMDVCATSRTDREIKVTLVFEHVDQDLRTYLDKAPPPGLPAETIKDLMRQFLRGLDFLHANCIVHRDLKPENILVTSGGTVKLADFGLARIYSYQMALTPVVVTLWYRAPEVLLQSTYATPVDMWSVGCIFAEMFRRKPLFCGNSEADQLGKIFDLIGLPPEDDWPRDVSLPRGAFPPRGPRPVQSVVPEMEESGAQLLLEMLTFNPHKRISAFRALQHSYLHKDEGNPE
Chain of cdk4/D (P24385 whole entry partner, species assumed): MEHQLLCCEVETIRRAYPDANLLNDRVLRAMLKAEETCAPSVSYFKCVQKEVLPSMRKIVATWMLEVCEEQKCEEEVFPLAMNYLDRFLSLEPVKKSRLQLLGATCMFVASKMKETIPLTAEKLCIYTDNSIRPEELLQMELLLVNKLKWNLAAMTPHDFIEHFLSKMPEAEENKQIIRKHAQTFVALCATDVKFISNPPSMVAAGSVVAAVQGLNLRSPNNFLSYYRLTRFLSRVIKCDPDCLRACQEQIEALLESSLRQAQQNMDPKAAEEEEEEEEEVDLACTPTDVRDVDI
T3 sequence (P11362 478-767 limits assumed): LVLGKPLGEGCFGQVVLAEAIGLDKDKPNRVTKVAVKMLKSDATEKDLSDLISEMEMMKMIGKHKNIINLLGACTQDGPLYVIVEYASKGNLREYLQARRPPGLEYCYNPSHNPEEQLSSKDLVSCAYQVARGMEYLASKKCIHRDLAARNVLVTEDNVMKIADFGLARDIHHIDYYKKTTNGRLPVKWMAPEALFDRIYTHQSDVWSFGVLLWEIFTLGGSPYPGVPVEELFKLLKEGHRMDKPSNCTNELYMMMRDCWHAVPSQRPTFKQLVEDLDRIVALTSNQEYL
T2 sequence (P05622 599-961 limits assumed): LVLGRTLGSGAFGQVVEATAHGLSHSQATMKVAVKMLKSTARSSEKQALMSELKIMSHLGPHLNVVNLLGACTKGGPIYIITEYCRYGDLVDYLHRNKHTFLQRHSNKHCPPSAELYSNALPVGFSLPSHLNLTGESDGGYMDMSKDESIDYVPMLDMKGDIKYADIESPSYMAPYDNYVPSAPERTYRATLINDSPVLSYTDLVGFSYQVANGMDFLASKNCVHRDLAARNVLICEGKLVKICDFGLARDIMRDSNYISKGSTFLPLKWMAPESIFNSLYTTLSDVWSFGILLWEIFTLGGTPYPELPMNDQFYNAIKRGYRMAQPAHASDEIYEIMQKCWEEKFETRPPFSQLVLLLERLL

SMILES | IC50 [1] [µM] | melting point | IC50 [2] [µM] | IC50 [3] [µM] | IC50 [4] [µM] | IC50 [5] [µM] | IC50 [6] [µM] | IC50 [7] [µM]
CN(C)C1CCN(c2ccc(Nc3ncc4c(n3)N(C3CCCC3)C(=O)NC4)cc2)CC1 [Example 17, 1-Cyclopentyl-7-{4-[4-(dimethylamino)piperidin-1-yl]phenylamino}-3,4-dihydro-pyrimido[4,5-d]pyrimidin-2(1H)-one] | 0.37 | > 200 °C (dec.) | 3.55 | 1.31 | 0.32 | 0.31 | 20.2 | –
O=C1NCc2cnc(Nc3ccc(N4CCC(CCN5CCOCC5)CC4)cc3)nc2N1C1CCCC1 [Example 21] | 1.6 | – | 3 | 1.37 | 1.1 | 0.165 | 36.1 | –
CN1CCN(c2ccc(Nc3ncc4cnc(=O)n(C5CC6CCC5C6)c4n3)cc2)CC1 (stereo not drawn) [Example 44, 1-Bicyclo [2.2.1]hept-2-yl-7-[4-(4-methylpiperazin-1-yl)phenylamino]-pyrimido[4,5-d]pyrimidin-2(1H)-one, exo] | 2.3 | > 210 °C (dec.) | 1.2 | 1.03 | – | 0.018 | 7.36 | 0.47
CC(C)n1c(=O)ncc2cnc(Nc3ccc(N4CCC(CCCN5CCOCC5)CC4)cc3)nc21 [Example 43, 1-Isopropyl-7-{4-[4-(3-(morpholin-4-yl)propyl)piperidin-1-yl]phenylamino}-pyrimido[4,5-d]pyrimidin-2(1H)-one] | – | – | 38 | 7.49 | – | 0.54 | > 40 | 4.93
